ChEMBL document CHEMBL5442219

What was measured:
Conditions in all cases: Compound concentration 10 µM
[1] = target: T1, 5-hydroxytryptamine receptor 3A (Homo sapiens) (UniProt P46098)
T1 sequence (whole entry): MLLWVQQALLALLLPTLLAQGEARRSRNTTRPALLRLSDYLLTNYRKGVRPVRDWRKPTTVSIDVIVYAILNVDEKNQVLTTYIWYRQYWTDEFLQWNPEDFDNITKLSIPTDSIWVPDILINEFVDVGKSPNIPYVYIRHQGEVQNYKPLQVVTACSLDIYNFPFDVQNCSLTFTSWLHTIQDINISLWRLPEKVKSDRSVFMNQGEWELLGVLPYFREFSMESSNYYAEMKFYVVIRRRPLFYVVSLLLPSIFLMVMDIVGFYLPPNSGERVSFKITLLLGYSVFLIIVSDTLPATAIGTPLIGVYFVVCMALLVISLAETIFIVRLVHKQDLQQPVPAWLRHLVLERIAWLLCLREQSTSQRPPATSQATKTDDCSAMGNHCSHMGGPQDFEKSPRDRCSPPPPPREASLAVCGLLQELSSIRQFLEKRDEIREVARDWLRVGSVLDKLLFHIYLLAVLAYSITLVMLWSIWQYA
Description: PDSP Primary Binding target: HTR3A - Compounds are tested at 10 uM concentration, plate are incubated at room temperature in the dark for 90 minutes. Reaction are stopped by vacuum filtration onto 0.3% polyethyleneimine soaked filter mats using Filtermate harvester. Scintilation cocktail is then melted onto microwave-dried filters on a hot plate and the radio activity is counted in Microbia counter.

[2] = target: T2, Alpha-1A adrenergic receptor (Homo sapiens) (UniProt P35348)
T2 sequence (whole entry): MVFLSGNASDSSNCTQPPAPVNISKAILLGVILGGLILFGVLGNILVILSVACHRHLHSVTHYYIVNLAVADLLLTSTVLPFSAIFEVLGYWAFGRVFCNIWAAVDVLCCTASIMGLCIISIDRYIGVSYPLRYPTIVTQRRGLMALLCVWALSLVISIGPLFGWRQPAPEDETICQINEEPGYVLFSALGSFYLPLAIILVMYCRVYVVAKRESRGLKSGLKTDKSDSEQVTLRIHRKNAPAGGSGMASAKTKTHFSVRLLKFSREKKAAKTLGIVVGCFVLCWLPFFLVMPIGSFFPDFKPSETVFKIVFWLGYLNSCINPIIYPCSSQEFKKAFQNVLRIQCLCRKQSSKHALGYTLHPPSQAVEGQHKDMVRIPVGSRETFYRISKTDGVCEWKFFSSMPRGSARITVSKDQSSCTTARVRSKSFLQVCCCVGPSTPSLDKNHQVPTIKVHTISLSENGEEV
Description: PDSP Primary Binding target: ADRA1A - Compounds are tested at 10 uM concentration, plate are incubated at room temperature in the dark for 90 minutes. Reaction are stopped by vacuum filtration onto 0.3% polyethyleneimine soaked filter mats using Filtermate harvester. Scintilation cocktail is then melted onto microwave-dried filters on a hot plate and the radio activity is counted in Microbia counter.

[3] = target: T3, Alpha-1B adrenergic receptor (Homo sapiens) (UniProt P35368)
T3 sequence (whole entry): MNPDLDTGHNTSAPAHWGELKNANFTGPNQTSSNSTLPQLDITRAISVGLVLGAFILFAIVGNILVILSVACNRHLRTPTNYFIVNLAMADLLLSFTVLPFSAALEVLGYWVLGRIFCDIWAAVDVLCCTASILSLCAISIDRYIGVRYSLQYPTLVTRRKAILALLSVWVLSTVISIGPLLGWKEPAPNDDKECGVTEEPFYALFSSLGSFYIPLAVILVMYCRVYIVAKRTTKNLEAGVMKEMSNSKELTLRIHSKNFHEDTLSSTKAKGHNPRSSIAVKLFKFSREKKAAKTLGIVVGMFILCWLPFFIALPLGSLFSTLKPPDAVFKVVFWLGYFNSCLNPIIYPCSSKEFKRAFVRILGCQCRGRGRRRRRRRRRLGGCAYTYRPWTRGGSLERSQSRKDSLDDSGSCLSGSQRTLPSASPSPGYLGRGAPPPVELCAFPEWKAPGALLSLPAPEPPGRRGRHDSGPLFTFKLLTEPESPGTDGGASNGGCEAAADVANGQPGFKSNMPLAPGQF
Description: PDSP Primary Binding target: ADRA1B - Compounds are tested at 10 uM concentration, plate are incubated at room temperature in the dark for 90 minutes. Reaction are stopped by vacuum filtration onto 0.3% polyethyleneimine soaked filter mats using Filtermate harvester. Scintilation cocktail is then melted onto microwave-dried filters on a hot plate and the radio activity is counted in Microbia counter.

[4] = target: 5-hydroxytryptamine receptor 1D (Homo sapiens) (UniProt P28221)
Description: PDSP Primary Binding target: HTR1D - Compounds are tested at 10 uM concentration, plate are incubated at room temperature in the dark for 90 minutes. Reaction are stopped by vacuum filtration onto 0.3% polyethyleneimine soaked filter mats using Filtermate harvester. Scintilation cocktail is then melted onto microwave-dried filters on a hot plate and the radio activity is counted in Microbia counter.

[5] = target: Mu-type opioid receptor (Homo sapiens) (UniProt P35372)
Description: PDSP Primary Binding target: OPRM1 - Compounds are tested at 10 uM concentration, plate are incubated at room temperature in the dark for 90 minutes. Reaction are stopped by vacuum filtration onto 0.3% polyethyleneimine soaked filter mats using Filtermate harvester. Scintilation cocktail is then melted onto microwave-dried filters on a hot plate and the radio activity is counted in Microbia counter.

[6] = target: Translocator protein (Homo sapiens) (UniProt P30536)
Description: PDSP Primary Binding target: TSPO - Compounds are tested at 10 uM concentration, plate are incubated at room temperature in the dark for 90 minutes. Reaction are stopped by vacuum filtration onto 0.3% polyethyleneimine soaked filter mats using Filtermate harvester. Scintilation cocktail is then melted onto microwave-dried filters on a hot plate and the radio activity is counted in Microbia counter.

[7] = target: T4, 5-hydroxytryptamine receptor 2C (Homo sapiens) (UniProt P28335)
T4 sequence (whole entry): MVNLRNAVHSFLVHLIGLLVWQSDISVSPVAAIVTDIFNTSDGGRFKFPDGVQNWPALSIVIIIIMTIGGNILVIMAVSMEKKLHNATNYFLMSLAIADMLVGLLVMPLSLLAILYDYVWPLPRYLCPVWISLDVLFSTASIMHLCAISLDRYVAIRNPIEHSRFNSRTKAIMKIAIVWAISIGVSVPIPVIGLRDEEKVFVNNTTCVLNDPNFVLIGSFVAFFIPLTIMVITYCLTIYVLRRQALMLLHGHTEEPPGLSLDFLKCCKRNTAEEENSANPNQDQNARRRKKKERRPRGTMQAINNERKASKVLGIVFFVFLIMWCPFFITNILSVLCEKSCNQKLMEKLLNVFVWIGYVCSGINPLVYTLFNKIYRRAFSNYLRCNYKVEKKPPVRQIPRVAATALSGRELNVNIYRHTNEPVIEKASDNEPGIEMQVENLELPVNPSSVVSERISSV
Description: PDSP Primary Binding target: HTR2C - Compounds are tested at 10 uM concentration, plate are incubated at room temperature in the dark for 90 minutes. Reaction are stopped by vacuum filtration onto 0.3% polyethyleneimine soaked filter mats using Filtermate harvester. Scintilation cocktail is then melted onto microwave-dried filters on a hot plate and the radio activity is counted in Microbia counter.

[8] = target: T5, Muscarinic acetylcholine receptor M5 (Homo sapiens) (UniProt P08912)
T5 sequence (whole entry): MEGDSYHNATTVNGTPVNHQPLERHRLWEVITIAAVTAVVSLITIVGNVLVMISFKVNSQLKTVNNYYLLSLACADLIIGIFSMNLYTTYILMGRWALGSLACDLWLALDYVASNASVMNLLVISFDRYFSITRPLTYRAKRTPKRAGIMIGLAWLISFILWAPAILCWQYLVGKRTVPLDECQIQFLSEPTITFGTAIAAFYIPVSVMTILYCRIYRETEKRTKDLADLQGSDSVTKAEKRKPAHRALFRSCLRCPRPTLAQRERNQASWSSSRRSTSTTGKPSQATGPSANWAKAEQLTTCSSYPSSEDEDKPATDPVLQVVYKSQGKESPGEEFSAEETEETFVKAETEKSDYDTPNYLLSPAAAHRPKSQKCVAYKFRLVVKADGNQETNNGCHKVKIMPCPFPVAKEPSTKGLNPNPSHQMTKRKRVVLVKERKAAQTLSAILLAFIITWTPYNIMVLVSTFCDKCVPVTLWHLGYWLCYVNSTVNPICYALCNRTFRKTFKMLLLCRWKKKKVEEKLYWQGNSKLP
Description: PDSP Primary Binding target: CHRM5 - Compounds are tested at 10 uM concentration, plate are incubated at room temperature in the dark for 90 minutes. Reaction are stopped by vacuum filtration onto 0.3% polyethyleneimine soaked filter mats using Filtermate harvester. Scintilation cocktail is then melted onto microwave-dried filters on a hot plate and the radio activity is counted in Microbia counter.

Chain of 5-hydroxytryptamine receptor 1D (Homo sapiens) (P28221 whole entry): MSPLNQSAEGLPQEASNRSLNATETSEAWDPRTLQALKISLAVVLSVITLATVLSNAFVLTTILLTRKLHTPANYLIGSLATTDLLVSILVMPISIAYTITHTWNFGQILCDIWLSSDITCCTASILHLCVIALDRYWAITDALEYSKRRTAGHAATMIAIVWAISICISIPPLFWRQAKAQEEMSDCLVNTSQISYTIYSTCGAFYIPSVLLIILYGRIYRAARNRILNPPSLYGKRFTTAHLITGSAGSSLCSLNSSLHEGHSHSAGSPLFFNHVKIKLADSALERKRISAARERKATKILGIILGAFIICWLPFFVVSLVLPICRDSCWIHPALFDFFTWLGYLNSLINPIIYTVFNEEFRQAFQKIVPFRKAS
Chain of Mu-type opioid receptor (Homo sapiens) (P35372 whole entry): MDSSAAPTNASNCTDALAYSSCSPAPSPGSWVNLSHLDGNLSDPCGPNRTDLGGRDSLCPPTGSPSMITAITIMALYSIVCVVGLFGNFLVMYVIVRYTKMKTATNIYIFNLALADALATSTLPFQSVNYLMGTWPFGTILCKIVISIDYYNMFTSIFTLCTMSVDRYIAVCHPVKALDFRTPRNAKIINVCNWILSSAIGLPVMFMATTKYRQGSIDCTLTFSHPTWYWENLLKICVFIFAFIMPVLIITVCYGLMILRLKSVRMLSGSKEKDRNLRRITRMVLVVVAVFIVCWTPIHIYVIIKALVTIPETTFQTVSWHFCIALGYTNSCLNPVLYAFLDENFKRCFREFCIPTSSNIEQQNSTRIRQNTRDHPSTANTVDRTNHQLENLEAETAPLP
Chain of Translocator protein (Homo sapiens) (P30536 whole entry): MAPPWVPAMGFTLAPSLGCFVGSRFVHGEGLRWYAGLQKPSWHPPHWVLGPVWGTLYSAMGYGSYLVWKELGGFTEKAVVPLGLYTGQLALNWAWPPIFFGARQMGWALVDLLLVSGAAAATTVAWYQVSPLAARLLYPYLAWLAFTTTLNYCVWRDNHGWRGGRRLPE

SMILES | inhibition [1] [%] | inhibition [2] [%] | inhibition [3] [%] | inhibition [4] [%] | inhibition [5] [%] | inhibition [6] [%] | inhibition [7] [%] | inhibition [8] [%]
COc1ccc2[nH]cc(CCNC(C)=O)c2c1 | -3.39 | -4.46 | 1.22 | 17.3 |  |  |  | 
O=C1N/C(=N/c2ccccc2F)S/C1=C\c1ccc(C(=O)O)cc1 | -3.21 | -2.85 |  | 19 | 56 | 4.31 |  | 
CCc1nn2c(C)cc(C)nc2c1Cc1ccc(-c2nnc(C3CCNCC3)o2)cc1 | 93.4 | -9.75 | -7.24 | 14.8 | 50.7 |  | 10.1 | 
NCCc1cn(S(=O)(=O)c2c(Cl)nc3sccn23)c2ccccc12 | 79.2 | 57.5 | 51.4 | 81.9 | 16.8 | -4.24 |  | 0.78
Cc1ccc(O)c([C@H](CCN(C(C)C)C(C)C)c2ccccc2)c1 | -0.33 | 0.77 | 17.4 | 41.2 | -3.49 | 13.8 |  | 0
CC1CCN(CC[C@H]2CCCN2S(=O)(=O)c2cccc(O)c2)CC1 | -9.3 |  | -3.56 | 88.7 | 62.9 | -7.14 |  | 1.99
COc1ccc2cc(S(=O)(=O)N[C@H](CC(=O)N[C@H](Cc3ccc(CN4[C@H](C)CCC[C@@H]4C)cc3)C(=O)N(C)C(C)C)c3ccc4c(c3)OCO4)ccc2c1 | 12.8 | 3.26 | 2.74 |  | 40 | 0.6 | 19.7 | 52.8
N#Cc1c(N)nc(SCc2csc(-c3ccc(Cl)cc3)n2)c(C#N)c1-c1ccc(OCCO)cc1 | 1.79 | 6.84 | 7.17 | 5.65 |  | 57.6 | 39.9 | 
CNC[C@H](O)c1ccc(O)c(O)c1 |  | 6.21 | 2.3 | 15.8 | -2.25 | -0.39 |  | 
c1nc(CC2CCNCC2)c[nH]1 | 6.29 | -4.11 | 15.3 | 9.58 | -6.55 |  |  | 1.07
CCCn1c(=O)c2nc(C34CC5CC(CC3C5)C4)[nH]c2n(CCC)c1=O | -9.26 |  |  | 23.4 | 9.1 | 25.5 | -0.12 | 
Cc1cc(C)c(N)c(C#Cc2cccc(F)c2)n1 | -2.76 | 10.2 | -8.91 | 18.3 | 2.84 | 39.6 | 2.41 | 
CCC(=O)NCC[C@@H]1CCc2ccc3c(c21)CCO3 | 6.73 | -9.5 | -0.82 | 6.75 | -7.21 | 27.6 | -6.58 | 
COc1cc2nc(N3CCN(C(=O)c4ccco4)CC3)nc(N)c2cc1OC | 2.09 | 98.7 | 0 |  | 50 | 75.9 | 3.9 | 3.19
O=c1ccn([C@@H]2O[C@H](COP(=O)(O)OP(=O)(O)OP(=O)(O)O)[C@@H](O)[C@H]2O)c(=O)[nH]1 | -3.36 | 2.2 |  |  | 27.4 | 56.6 | 9.66 | 7.7
Brc1c(NC2=NCCN2)ccc2nccnc12 | -5.05 | 34 | 55.7 | 49.5 | 0.59 | -7.41 | 6.61 | 
CC(C)(C(=O)O)c1ccc(C(O)CCCN2CCC(C(O)(c3ccccc3)c3ccccc3)CC2)cc1 (stereo not drawn) |  |  | 2.41 | 39.8 |  | -4.11 | -8.36 | 
CC1(C)SSC(C)(C)[C@@H](NC(=O)[C@@H](N)Cc2ccc(O)cc2)C(=O)NCC(=O)N[C@@H](Cc2ccccc2)C(=O)N[C@H]1C(=O)O |  | -6.07 | 8.91 | 15.2 |  |  |  | 
OC[C@H]1O[C@@H](n2cnc3c(NC4CCCC4)ncnc32)[C@H](O)[C@@H]1O | 3.29 | -0.37 | 9.65 | 24.7 |  |  | -3.43 | 
NC[C@H](O)c1ccc(O)c(O)c1 | -8.31 | 7.82 | 37.9 | 24.3 |  | 4.34 | -4.42 | 
NCCc1c[nH]c2ccc(C(N)=O)cc12 |  | -9.81 | 3.04 | 98.3 | 28.8 |  | 71.4 | 8.53
Cc1ccccc1N1CCN(S(=O)(=O)C[C@]23CC[C@H](C[C@@H]2NC(=O)[C@@H](N)CCS(C)(=O)=O)C3(C)C)CC1 | -6.48 | 19.4 | -3.68 | -2.54 | 15.9 | -1.05 | -4.87 | 
NC(=O)[C@@H]1CCCN1C(=O)[C@H](Cc1c[nH]cn1)NC(=O)[C@@H]1CCC(=O)N1 | 8.73 | -7.07 | -3.89 |  | 45.1 | 73.2 | -0.43 | 5.07
O=C(O)Cn1c(C(=O)Nc2nc(-c3ccccc3Cl)cs2)cc2ccccc21 |  |  | -9.67 | 38.3 | 8.9 | 20.4 | 12.4 | 
COC(=O)[C@H]1[C@H]2C[C@H]3c4[nH]c5ccccc5c4CCN3C[C@H]2CC[C@@H]1O | -2.94 | 66.2 | 58.4 |  | 28.7 | 7.14 | 2.54 | 4.29
